Structures are written as SMILES. Read-outs that look alike come from different tables or passages of the source.

Experiment [1] relates to NCI-H358 cells (KRAS G12C mutant). In words: NCI-H358 cell proliferation inhibition (CellTiter-Glo). It counts as cell-based. The following applies: Homo sapiens, NCI-H358, 72 h; H358 cells (G12C mutation), 3 days, Table 6; read-out: NCI-H358 (IC50). On the procedure: The CellTiter-Glo®, assay was used to detect the number of viable cells, in order to evaluate the anti-proliferation efficacy of compounds. […] The compounds were serially diluted 5-fold in DMSO to obtain 8 concentrations, and then further diluted with RPMI-640 (10% FBS) cell culture medium to obtain the working solutions (5′), 20 μL of each working solution was added to the cell culture supernatant in each well, and the plate was further incubated for 3 days at 37° C. with 5% CO2. The plate was then equilibrated with CellTiter-Glo® reagent at room temperature (25° C.) for 10-30 minutes. After aspirating 50 μL of the medium, 50 μL of CellTiter-Glo® reagent was added. The cells were thoroughly mixed with the CellTiter-Glo® reagent using a microplate shaker for 2 minutes, and then incubated at room temperature for 10 minutes. The 96-well plate was placed in a multi-mode microplate reader to record the luminescence values (RLU). The inhibition rate was calculated through the following equation: [formula] Data were analyzed using GraphPad Prism for IC50 values (Note: The negative control refers to the group without inhibitor).

The next experiment has as its target PI3Kα (Homo sapiens (Human), UniProt P42336). In words: Inhibition of PI3Kα efficacy assay (ADP-Glo kinase assay). It counts as biochemical. The following applies: read-out: PI3Kα inhibitory activity (IC50). As to the method:
Inhibition of PI3Kα Efficacy assay The ADP-Glo™ kinase assay was used to assess the inhibition of PI3Kα with our compounds. The utilized proteins and assay reagents were obtained from the ADP-Glo™ Kinase Assay Kit (Promega). Initially, a 2 mM stock solution of the test compound (dissolved in DMSO) was serially diluted in five-fold concentrations using DMSO to obtain eight working solutions 1 (200′). […] Subsequently, 2 μL of 2.5×PI and ATP solution mixture were added to each well, mixed, and incubated at RT for 60 minutes. Then, 5 μL of ADP-Glo (containing 10 mM MgCl2) reagent was added to each well, mixed, and incubated at RT for 40 minutes. Finally, 10 μL of the Kinase Detection Reagent was added to each well, mixed, and incubated at RT for 40 minutes. […] Data were analyzed using GraphPad Prism with log(inhibitor) vs. response—Variable Slope(four parameters) fitting calculations for […]. (Note: The negative control refers to the group without inhibitor, and the blank control refers to the group without enzyme.) The data were presented in Tables 1 to 4.

A further experiment addresses PI3Kδ (Homo sapiens (Human), UniProt O00329). The experiment in a line: Inhibition of PI3Kδ efficacy assay (ADP-Glo kinase assay). It counts as biochemical. The following applies: read-out: PI3Kδ inhibitory activity (IC50). On the procedure: Test Example 2: Inhibition of PI3Kδ Efficacy assay The ADP-Glo™ kinase assay was used to assess the inhibition of PI3Kδ with our compounds. The utilized proteins and assay reagents were obtained from the ADP-Glo™ Kinase Assay Kit (Promega). Initially, a 2 mM stock solution of the test compound (dissolved in DMSO) was serially diluted in five-fold concentrations using DMSO to obtain eight working solutions 1 (200×) Subsequently, each of the eight working solutions 1 was further diluted in a 20-fold gradient by adding 5 μL into 95 μL of ddH2O, resulting in eight working solutions 2 (10×). […] Subsequently, 2 μL of 2.5×PI and ATP solution mixture were added to each well, mixed, and incubated at RT for 60 minutes. Then, 5 μL of ADP-Glo (containing 10 mM MgCl2) reagent was added to each well, mixed, and incubated at RT for 40 minutes. Finally, 10 μL of the Kinase Detection Reagent was added to each well, mixed, and incubated at RT for 40 minutes. Luminescence values were recorded using a multi-mode microplate reader with luminescence channel settings, and the inhibitory rate was calculated using the following formula: [formula] Data were analyzed using GraphPad Prism with log(inhibitor) vs. response—Variable Slope(four parameters) fitting calculations for IC50 values.

Sequence of PI3Kδ (O00329 whole entry): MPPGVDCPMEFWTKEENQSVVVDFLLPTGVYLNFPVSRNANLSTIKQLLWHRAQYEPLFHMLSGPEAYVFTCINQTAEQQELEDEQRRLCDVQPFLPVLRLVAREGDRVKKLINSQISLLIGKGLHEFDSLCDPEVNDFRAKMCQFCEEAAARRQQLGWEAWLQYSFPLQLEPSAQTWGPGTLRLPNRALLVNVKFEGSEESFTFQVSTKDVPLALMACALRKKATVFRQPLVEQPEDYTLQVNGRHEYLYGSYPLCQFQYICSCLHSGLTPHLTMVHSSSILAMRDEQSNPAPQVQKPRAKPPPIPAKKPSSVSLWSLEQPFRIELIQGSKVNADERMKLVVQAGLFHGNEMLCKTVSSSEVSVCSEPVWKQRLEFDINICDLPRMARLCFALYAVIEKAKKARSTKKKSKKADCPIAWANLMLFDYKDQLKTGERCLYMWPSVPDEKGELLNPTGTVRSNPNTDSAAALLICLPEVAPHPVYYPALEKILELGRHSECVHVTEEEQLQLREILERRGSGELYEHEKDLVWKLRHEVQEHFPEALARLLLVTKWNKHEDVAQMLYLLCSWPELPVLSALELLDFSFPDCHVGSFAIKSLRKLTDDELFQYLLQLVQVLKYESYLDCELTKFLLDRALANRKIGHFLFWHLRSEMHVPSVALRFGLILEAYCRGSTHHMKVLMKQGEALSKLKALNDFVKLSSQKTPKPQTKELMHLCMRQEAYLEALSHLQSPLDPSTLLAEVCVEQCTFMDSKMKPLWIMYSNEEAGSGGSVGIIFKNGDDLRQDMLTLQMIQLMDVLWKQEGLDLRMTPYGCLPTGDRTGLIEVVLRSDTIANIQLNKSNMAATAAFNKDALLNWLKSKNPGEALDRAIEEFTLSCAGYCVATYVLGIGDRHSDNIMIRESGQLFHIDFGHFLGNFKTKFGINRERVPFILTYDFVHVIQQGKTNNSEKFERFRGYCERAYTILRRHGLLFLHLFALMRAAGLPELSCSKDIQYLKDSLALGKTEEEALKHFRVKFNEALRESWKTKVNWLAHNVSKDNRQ
Sequence of PI3Kδ (P27986 whole entry partner): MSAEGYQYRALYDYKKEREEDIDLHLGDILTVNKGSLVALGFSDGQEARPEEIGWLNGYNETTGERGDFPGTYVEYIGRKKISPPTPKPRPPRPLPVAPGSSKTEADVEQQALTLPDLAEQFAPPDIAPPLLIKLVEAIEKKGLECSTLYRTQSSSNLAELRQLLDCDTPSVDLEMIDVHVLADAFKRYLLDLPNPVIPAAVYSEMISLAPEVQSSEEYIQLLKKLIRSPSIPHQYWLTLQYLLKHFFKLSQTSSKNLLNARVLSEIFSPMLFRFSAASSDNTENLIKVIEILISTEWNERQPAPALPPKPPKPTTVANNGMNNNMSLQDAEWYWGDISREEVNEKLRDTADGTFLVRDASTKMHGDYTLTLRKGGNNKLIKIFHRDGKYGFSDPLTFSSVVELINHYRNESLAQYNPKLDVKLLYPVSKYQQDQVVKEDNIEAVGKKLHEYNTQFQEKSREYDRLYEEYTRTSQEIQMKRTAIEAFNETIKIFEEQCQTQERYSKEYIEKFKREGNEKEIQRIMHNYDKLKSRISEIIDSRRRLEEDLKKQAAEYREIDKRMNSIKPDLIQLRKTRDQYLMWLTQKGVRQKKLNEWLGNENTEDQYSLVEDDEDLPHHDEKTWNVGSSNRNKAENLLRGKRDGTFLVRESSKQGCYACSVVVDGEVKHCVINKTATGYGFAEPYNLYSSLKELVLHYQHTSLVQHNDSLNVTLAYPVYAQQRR
Sequence of PI3Kα (P42336 whole entry): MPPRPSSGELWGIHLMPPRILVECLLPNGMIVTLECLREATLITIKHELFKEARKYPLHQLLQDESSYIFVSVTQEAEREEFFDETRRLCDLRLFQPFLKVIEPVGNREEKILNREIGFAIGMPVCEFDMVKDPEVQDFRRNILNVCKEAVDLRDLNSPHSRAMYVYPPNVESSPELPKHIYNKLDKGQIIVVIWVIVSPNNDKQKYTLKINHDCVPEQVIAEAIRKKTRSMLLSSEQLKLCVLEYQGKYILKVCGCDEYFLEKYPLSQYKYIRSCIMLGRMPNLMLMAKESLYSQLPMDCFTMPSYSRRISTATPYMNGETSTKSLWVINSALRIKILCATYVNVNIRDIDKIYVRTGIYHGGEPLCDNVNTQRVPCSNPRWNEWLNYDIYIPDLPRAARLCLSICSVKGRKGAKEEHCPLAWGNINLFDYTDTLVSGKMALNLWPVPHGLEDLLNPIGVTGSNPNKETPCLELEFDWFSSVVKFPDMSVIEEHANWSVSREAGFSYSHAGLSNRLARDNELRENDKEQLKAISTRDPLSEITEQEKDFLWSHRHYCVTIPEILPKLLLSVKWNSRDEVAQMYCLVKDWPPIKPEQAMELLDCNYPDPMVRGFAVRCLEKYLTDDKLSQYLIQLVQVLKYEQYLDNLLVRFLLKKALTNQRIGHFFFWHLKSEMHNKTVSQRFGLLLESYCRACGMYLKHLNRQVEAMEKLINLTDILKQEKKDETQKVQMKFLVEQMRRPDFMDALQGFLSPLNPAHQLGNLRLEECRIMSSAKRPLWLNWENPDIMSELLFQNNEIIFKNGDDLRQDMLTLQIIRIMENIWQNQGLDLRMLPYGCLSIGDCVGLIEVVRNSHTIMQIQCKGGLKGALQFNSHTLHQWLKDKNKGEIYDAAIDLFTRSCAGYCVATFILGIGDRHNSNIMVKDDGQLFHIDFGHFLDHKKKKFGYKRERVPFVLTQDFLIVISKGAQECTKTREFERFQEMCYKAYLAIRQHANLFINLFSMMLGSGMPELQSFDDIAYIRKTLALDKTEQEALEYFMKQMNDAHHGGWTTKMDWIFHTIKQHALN
Sequence of PI3Kα (P27986 whole entry partner): as the sequence (P27986 whole entry partner) above

Regarding `C=C(F)C(=O)N1CCN(c2ncnc3ccc(-c4cnc(OC)c(NS(=O)(=O)c5ccc(F)cc5F)c4)cc23)[C@@H](C)C1` [Example 9, (S)-2,4-difluoro-N-(5-(4-(4-(2-fluoroacryloyl)-2-methylpiperazin-1-yl)quinazolin-6-yl)-2-methoxypyridin-3-yl)benzenesulfonamide], the results for the IC50 (in experiment [1]; on PI3Kα (Table 1); at PI3Kδ (Table 1)) were 350 nM, 0.56 nM and 9.05 nM, respectively.

Consider `C=CC(=O)N1CC2(CCN(c3ncnc4ccc(-c5cnc(OC)c(NS(=O)(=O)c6ccc(F)cc6F)c5)cc34)C2)C1` [Example 12, N-(5-(4-(2-acryloyl-2,6-diazaspiro[3.4]octan-6-yl)quinazolin-6-yl)-2-methoxypyridin-3-yl)-2,4-difluorobenzenesulfonamide], for which the figures for the IC50 (in experiment [1]; on PI3Kα (Table 1); at PI3Kδ (Table 1)) were 50.6 nM, 9.3 nM and 77.4 nM, respectively.

As to `C=CC(=O)N1C[C@H](C)N(c2ncnc3ccc(-c4cnc(OC)c(NS(=O)(=O)c5ccc(F)cc5F)c4)cc23)C[C@H]1C` [Example 14, N-(5-(4-((2S,5R)-4-acryloyl-2,5-dimethylpiperazin-1-yl)quinazolin-6-yl)-2-methoxypyridin-3-yl)-2,4-difluorobenzenesulfonamide], the IC50 in experiment [1] came out at 233 nM; at PI3Kα (Table 1), 9.5 nM; at PI3Kδ (Table 1) it was 62.1 nM.

As for `COc1ncc(-c2ccc3ncnc(N4CCN(C(=O)/C=C/CF)CC4)c3c2)cc1NS(=O)(=O)c1ccc(F)cc1F` [Example 16, (E)-2,4-difluoro-N-(5-(4-(4-(4-fluorobut-2-enoyl)piperazin-1-yl)quinazolin-6-yl)-2-methoxypyridin-3-yl)benzenesulfonamide], the IC50 in experiment [1] worked out at 35.2 nM; on PI3Kα (Table 1), 0.26 nM; on PI3Kδ (Table 1) it was 28.5 nM.

As for `C=CC(=O)N1CC2(CCN(c3ncnc4ccc(-c5cnc(OC)c(NS(=O)(=O)c6ccc(F)cc6F)c5)cc34)CC2)C1` [Example 18, N-(5-(4-(2-acryloyl-2,7-diazaspiro[3.5]nonan-7-yl)quinazolin-6-yl)-2-methoxypyridin-3-yl)-2,4-difluorobenzenesulfonamide], the 50% inhibitory concentration (IC50) is 60.1 nM in experiment [1], 1.2 nM on PI3Kα (Table 1) and 12.5 nM on PI3Kδ (Table 1).

Regarding `C=CC(=O)N1CCN(c2ncnc3ccc(-c4cncc(NS(=O)(=O)c5ccc(F)cc5F)c4)cc23)CC1` [Example 27, N-(5-(4-(4-acryloylpiperazin-1-yl)quinazolin-6-yl)pyridin-3-yl)-2,4-difluorobenzenesulfonamide], the IC50 on PI3Kα (Table 1) is 1.8 nM; at PI3Kδ (Table 1), 27.3 nM.

As for `CC(=O)/C=C/C(=O)N1CCN(c2ncnc3ccc(-c4cncc(NS(=O)(=O)c5ccc(F)cc5F)c4)cc23)CC1` [Example 28, (E)-2,4-difluoro-N-(5-(4-(4-(4-oxopent-2-enoyl)piperazin-1-yl)quinazolin-6-yl)pyridin-3-yl)benzenesulfonamide], the values for the IC50 on PI3Kα (Table 1) and at PI3Kδ (Table 1) were 1.8 nM and 49.7 nM, respectively.

For `C=CC(=O)N1CCN(c2nc(N)nc3ccc(-c4cnc(OC)c(NS(=O)(=O)c5ccc(F)cc5F)c4)cc23)CC1` [Example 30, N-(5-(4-(4-acryloylpiperazin-1-yl)-2-aminoquinazolin-6-yl)-2-methoxypyridin-3-yl)-2,4-difluorobenzenesulfonamide], the IC50 at PI3Kα (Table 1) came out at 430 nM; at PI3Kδ (Table 1) it was 1840 nM.

Regarding `C=CC(=O)N1CCN(c2nc(C#N)nc3ccc(-c4cnc(OC)c(NS(=O)(=O)c5ccc(F)cc5F)c4)cc23)CC1` [Example 31, N-(5-(4-(4-acryloylpiperazin-1-yl)-2-cyanoquinazolin-6-yl)-2-methoxypyridin-3-yl)-2,4-difluorobenzenesulfonamide], the results for the IC50 at PI3Kα (Table 1) and at PI3Kδ (Table 1) were 149 nM and 336 nM, respectively.

With `C=CC(=O)N1CCN(c2nc(O)nc3ccc(-c4cnc(OC)c(NS(=O)(=O)c5ccc(F)cc5F)c4)cc23)CC1` [Example 32, N-(5-(4-(4-acryloylpiperazin-1-yl)-2-hydroxyquinazolin-6-yl)-2-methoxypyridin-3-yl)-2,4-difluorobenzenesulfonamide], the results for the half-inhibitory concentration (IC50) at PI3Kα (Table 1) and on PI3Kδ (Table 1) were 2260 nM and over 5000 nM, respectively.

For `C=CC(=O)N1CCN(c2ncnc3ccc(-c4cnc(OC)c(NS(=O)(=O)c5ccc(Cl)s5)c4)cc23)CC1` [Example 37, N-(5-(4-(4-acryloylpiperazin-1-yl)quinazolin-6-yl)-2-methoxypyridin-3-yl)-5-chlorothiophene-2-sulfonamide], the IC50 amounted to 1.3 nM on PI3Kα (Table 1) and 20.1 nM on PI3Kδ (Table 1).

As for `C=CC(=O)N1CCN(c2ncnc3ccc(-c4cnc(OC)c(N(C)S(=O)(=O)c5c(F)cccc5F)c4)cc23)CC1` [Example 82, N-(5-(4-(4-acryloylpiperazin-1-yl)quinazolin-6-yl)-2-methoxypyridin-3-yl)-2,6-difluoro-N-methylbenzenesulfonamide], the 50% inhibitory concentration (IC50) came to 89.9 nM on PI3Kα (Table 2) and 75.6 nM at PI3Kδ (Table 2).

For `CNc1ncc(-c2ccc3ncnc(N4CCN(C(=O)/C=C/C(C)=O)CC4)c3c2)cc1NS(=O)(=O)c1ccc(F)cc1F` [Example 105, (E)-2,4-difluoro-N-(2-(methylamino)-5-(4-(4-(4-oxopent-2-enoyl)piperazin-1-yl)quinazolin-6-yl)pyridin-3-yl)benzenesulfonamide], the half-inhibitory concentration (IC50) was determined as 8.6 nM on PI3Kα (Table 2) and 38.5 nM at PI3Kδ (Table 2).

Turning to `C=CC(=O)N1CCN(c2ncnc3ccc(-c4cnc(OC5CCCC5)c(NS(=O)(=O)c5ccc(F)cc5F)c4)cc23)CC1` [Example 106, N-(5-(4-(4-acryloylpiperazin-1-yl)quinazolin-6-yl)-2-(cyclopentyloxy)pyridin-3-yl)-2,4-difluorobenzenesulfonamide], the half-inhibitory concentration (IC50) at PI3Kα (Table 2) and at PI3Kδ (Table 2) was 117 nM throughout.

As to `C=C(F)C(=O)N1CCN(c2ncnc3ccc(-c4cnc(OC5CCCC5)c(NS(=O)(=O)c5ccc(F)cc5F)c4)cc23)CC1` [Example 108, N-(2-(cyclopentyloxy)-5-(4-(4-(2-fluoroacryloyl)piperazin-1-yl)quinazolin-6-yl)pyridin-3-yl)-2,4-difluorobenzenesulfonamide], the IC50 on PI3Kα (Table 2) was found to be 161 nM; at PI3Kδ (Table 2) it was 268 nM.

For `C=CC(=O)N1CCN(c2ncnc3ccc(-c4cnc(OC)c(NCc5ccc(F)cc5F)c4)cc23)CC1` [Example 126, 1-(4-(6-(5-((2,4-difluorobenzyl)amino)-6-methoxypyridin-3-yl)quinazolin-4-yl)piperazin-1-yl)prop-2-en-1-one], the half-inhibitory concentration (IC50) on PI3Kα (Table 2) stood at 131 nM; at PI3Kδ (Table 2), 52.7 nM.

Regarding `CC(=O)/C=C/C(=O)N1CCN(c2ncnc3ccc(-c4cnc(O)c(NS(=O)(=O)c5ccc(F)cc5F)c4)cc23)CC1` [Example 129, (E)-2,4-difluoro-N-(2-hydroxy-5-(4-(4-(4-oxopent-2-enoyl)piperazin-1-yl)quinazolin-6-yl)pyridin-3-yl)benzenesulfonamide], the IC50 on PI3Kδ (Table 2) came to 142 nM.

Consider `COc1ncc(-c2nc(N3CCOCC3)nc3c(CN4CCC(C(C)(C)O)CC4)cc(F)cc23)cc1NS(C)(=O)=O` [Linperlisib, reference compound], for which the IC50 at PI3Kδ (Table 1) amounted to 18 nM.

`CCOc1c([C@H](C)n2nc(C)c3c(N)ncnc32)cc(Cl)c(F)c1[C@@H]1CNC(=O)C1` [Parsaclisib, reference compound]: the IC50 at PI3Kδ (Table 2) was found to be 8 nM; on PI3Kδ (Table 3), 6 nM; on PI3Kδ (Table 4) it was 4 nM.

The values above are taken from patent publication US20250145589A1, “PYRIDINE DERIVATIVE AND USE THEREOF” (SICHUAN HUIYU PHARMACEUTICAL CO., LTD., priority 2021, published 2025).
